Assay results reported in ChEMBL document CHEMBL3763037 (J Med Chem, 2016).

Assays:
[1] = Oral bioavailability in Sprague-Dawley rat at 10 mg/kg by LC-MS/MS analysis; format: ADME, organism-based; conditions: Sprague-Dawley, in vivo
[2] = AUC in Sprague-Dawley rat at 10 mg/kg, po by LC-MS/MS analysis; format: ADME, organism-based; conditions: Sprague-Dawley, in vivo
[3] = Cmax in Sprague-Dawley rat at 10 mg/kg, po by LC-MS/MS analysis; format: ADME, organism-based; parameters: dose 10 mg/kg, route oral; conditions: in vivo
[4] = Volume of distribution at steady state in Sprague-Dawley rat at 5 mg/kg, iv by LC-MS/MS analysis; format: ADME, organism-based; conditions: in vivo, read-out: Vdss
[5] = Clearance in Sprague-Dawley rat at 5 mg/kg, iv by LC-MS/MS analysis; format: ADME, organism-based; conditions: in vivo
Rattus norvegicus = assay: Terminal eliminational half life in Sprague-Dawley rat at 5 mg/kg, iv by LC-MS/MS analysis; format: ADME, organism-based; conditions: in vivo
CYP2C19 = CYP2C19 (Homo sapiens, UniProt P33261); assay: Inhibition of CYP2C19 (unknown origin) at 10 uM; format: ADME
[6] = molecular target: Voltage-gated inwardly rectifying potassium channel KCNH2 (Homo sapiens, UniProt Q12809); assay: Inhibition of human ERG by cell based assay
[7] = Plasma protein binding in human; format: ADME, cell-free; conditions: read-out: PPB (converted)
CYP2C9 = CYP2C9 (Homo sapiens, UniProt P11712); assay: Inhibition of CYP2C9 (unknown origin) at 10 uM; format: ADME
CYP2D6 = CYP2D6 (Homo sapiens, UniProt P10635); assay: Inhibition of CYP2D6 (unknown origin) at 10 uM; format: ADME
CYP3A4 = CYP3A4 (Homo sapiens, UniProt P08684); assay: Inhibition of CYP3A4 (unknown origin) at 10 uM; format: ADME
CYP1A2 = molecular target: T1, CYP1A2 (Homo sapiens, UniProt P05177); assay: Inhibition of CYP1A2 (unknown origin) at 10 uM; format: ADME
T1 sequence (P05177 whole entry): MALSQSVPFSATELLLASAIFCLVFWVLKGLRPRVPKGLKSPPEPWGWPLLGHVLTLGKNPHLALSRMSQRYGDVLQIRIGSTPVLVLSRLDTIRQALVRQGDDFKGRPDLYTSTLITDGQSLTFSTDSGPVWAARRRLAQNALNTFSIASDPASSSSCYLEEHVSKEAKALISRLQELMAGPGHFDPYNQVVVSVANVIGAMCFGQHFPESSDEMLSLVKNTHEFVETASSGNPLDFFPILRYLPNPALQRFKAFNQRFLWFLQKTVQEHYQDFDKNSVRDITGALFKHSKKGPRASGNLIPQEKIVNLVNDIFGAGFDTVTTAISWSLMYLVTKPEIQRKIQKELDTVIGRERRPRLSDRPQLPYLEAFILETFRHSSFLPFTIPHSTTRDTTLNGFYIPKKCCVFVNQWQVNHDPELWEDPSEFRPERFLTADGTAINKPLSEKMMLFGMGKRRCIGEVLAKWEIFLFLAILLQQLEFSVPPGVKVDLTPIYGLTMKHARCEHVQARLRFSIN

Salmonella typhimurium = assay: Mutagenicity in Salmonella typhimurium at 5 mg by Ames test; format: toxicity, organism-based, Salmonella enterica subsp. enterica serovar Typhimurium; conditions: in vivo
[8] = Half life in beagle dog at 0.1 mg/kg, po; format: ADME, organism-based, Canis lupus familiaris; conditions: in vivo
[9] = Cytotoxicity against BRCA2-deficient human Capan1 cells; format: functional, cell-based, CAPAN-1; conditions: Homo sapiens, CAPAN-1
MRC5 = assay: Cytotoxicity against human MRC5 cells; format: cell-based; conditions: Homo sapiens, MRC5
[10] = AUC (0 to t) in beagle dog at 0.1 mg/kg, po; format: ADME, organism-based, Canis lupus familiaris; conditions: in vivo
[11] = AUC (0 to infinity) in beagle dog at 0.1 mg/kg, po; format: ADME, organism-based, Canis lupus familiaris; parameters: dose 0.1 mg/kg, route oral, time infinity; conditions: in vivo
[12] = Cmax in beagle dog at 0.1 mg/kg, po; format: ADME, organism-based, Canis lupus familiaris; parameters: dose 0.1 mg/kg, route oral; conditions: in vivo
[13] = Tmax in beagle dog at 0.1 mg/kg, po; format: ADME, organism-based, Canis lupus familiaris; conditions: in vivo
Canis familiaris = assay: Clast in beagle dog at 0.1 mg/kg, po; format: ADME, organism-based, Canis lupus familiaris; conditions: in vivo
[14] = Apparent oral clearance in beagle dog at 0.1 mg/kg, po; format: ADME, organism-based, Canis lupus familiaris; conditions: in vivo
[15] = Absolute oral bioavailability in beagle dog at 0.1 mg/kg; format: ADME, organism-based, Canis lupus familiaris; conditions: in vivo
[16] = Half life in human; format: ADME, organism-based; conditions: in vivo
Mus musculus [17] = assay: Toxicity in athymic nu/nu mouse assessed as mortality at 0.1 to 0.33 mg/kg, po qd for 28 days; format: organism-based; conditions: in vivo, 672 h
Mus musculus [18] = assay: Toxicity in athymic nu/nu mouse assessed as change in body weight at 0.1 to 0.33 mg/kg, po qd for 28 days; format: organism-based; conditions: in vivo, 672 h
LoVo = assay: cells; conditions: Homo sapiens, 120 h

Sequence of CYP2C19 (P33261 whole entry): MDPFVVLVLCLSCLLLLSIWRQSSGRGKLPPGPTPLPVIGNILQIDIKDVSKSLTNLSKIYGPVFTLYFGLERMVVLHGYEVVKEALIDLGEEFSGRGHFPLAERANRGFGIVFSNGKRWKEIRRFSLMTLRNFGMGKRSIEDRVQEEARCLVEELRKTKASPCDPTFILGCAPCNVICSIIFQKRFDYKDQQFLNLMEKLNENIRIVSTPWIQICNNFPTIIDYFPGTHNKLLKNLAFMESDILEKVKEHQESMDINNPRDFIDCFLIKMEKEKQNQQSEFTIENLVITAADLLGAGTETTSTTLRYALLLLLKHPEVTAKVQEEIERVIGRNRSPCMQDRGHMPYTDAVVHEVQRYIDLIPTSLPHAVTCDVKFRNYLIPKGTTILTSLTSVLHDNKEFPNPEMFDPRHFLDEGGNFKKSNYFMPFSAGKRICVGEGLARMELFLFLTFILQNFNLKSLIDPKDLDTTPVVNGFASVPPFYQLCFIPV
Sequence of CYP3A4 (P08684 whole entry): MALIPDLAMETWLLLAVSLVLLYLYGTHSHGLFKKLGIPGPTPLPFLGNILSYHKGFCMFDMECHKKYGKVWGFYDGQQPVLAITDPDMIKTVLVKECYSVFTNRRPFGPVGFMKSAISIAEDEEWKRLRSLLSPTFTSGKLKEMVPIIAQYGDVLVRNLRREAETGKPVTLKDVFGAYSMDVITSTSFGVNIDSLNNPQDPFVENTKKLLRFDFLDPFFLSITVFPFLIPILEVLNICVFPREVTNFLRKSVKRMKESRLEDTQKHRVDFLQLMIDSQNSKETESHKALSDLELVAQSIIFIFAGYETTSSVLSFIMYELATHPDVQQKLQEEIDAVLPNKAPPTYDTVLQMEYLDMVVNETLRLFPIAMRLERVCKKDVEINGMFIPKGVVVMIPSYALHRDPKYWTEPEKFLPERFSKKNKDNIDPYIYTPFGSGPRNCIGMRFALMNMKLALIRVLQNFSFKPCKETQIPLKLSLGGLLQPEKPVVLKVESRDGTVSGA
Sequence of CYP2D6 (P10635 whole entry): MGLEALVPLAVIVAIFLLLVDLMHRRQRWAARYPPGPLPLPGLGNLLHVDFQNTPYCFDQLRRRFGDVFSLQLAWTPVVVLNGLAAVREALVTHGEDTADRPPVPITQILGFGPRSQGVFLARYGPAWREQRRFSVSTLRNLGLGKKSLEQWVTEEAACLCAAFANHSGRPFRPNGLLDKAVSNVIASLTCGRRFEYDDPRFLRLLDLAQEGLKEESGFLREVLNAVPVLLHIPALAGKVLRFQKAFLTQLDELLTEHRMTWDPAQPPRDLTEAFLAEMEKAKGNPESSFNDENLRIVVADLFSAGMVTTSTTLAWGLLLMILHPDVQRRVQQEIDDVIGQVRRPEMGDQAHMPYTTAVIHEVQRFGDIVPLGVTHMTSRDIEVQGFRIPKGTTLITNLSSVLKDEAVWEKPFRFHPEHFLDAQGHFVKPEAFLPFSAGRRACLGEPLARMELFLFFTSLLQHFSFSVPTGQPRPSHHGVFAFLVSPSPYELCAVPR
Sequence of Voltage-gated inwardly rectifying potassium channel KCNH2 (Q12809 whole entry): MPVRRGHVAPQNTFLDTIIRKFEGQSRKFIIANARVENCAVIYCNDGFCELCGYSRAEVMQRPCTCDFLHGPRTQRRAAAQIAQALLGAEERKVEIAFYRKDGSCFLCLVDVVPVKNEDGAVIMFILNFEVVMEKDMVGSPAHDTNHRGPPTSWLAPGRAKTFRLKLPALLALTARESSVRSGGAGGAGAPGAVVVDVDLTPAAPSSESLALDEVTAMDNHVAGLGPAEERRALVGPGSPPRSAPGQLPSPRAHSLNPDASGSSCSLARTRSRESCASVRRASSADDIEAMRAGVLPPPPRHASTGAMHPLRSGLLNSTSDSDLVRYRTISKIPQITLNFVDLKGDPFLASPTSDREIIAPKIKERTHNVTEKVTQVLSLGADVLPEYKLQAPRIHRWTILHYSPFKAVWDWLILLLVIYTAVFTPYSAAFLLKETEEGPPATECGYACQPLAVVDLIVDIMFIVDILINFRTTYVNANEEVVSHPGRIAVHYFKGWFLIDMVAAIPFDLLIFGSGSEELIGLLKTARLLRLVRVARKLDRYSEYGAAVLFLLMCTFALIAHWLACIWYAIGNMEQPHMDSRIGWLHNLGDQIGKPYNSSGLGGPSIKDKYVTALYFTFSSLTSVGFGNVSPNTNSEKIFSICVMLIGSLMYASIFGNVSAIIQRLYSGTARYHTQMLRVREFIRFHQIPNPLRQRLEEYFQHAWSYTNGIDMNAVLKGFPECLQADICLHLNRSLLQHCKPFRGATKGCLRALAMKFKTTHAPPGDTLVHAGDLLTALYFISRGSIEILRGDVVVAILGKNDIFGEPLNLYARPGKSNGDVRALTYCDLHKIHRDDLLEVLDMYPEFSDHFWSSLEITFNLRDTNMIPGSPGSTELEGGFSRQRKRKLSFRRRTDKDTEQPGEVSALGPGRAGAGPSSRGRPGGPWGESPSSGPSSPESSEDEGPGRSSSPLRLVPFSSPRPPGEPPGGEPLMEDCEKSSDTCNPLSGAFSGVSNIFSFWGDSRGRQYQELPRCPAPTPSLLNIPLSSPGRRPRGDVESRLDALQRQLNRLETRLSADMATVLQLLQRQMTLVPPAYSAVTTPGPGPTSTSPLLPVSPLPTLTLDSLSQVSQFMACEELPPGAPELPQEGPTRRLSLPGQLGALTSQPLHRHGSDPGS
Sequence of CYP2C9 (P11712 whole entry): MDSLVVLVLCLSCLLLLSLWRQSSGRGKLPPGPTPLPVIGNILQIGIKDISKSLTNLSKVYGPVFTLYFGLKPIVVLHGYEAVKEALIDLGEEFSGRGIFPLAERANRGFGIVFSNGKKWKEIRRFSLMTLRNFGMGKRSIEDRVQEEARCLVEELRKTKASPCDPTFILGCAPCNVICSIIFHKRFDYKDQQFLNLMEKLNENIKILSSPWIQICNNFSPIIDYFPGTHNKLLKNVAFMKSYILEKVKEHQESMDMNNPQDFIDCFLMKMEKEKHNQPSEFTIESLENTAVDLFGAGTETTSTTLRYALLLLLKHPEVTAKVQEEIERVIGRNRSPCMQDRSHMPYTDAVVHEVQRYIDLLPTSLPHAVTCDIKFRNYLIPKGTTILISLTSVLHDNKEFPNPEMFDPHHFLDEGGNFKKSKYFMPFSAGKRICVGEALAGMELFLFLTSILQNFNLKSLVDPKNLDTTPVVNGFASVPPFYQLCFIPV

**Q.** For `Cn1ncnc1[C@H]1c2n[nH]c(=O)c3cc(F)cc(c23)N[C@@H]1c1ccc(F)cc1` [TALAZOPARIB], which bioavailability [1] is on record?
**A.** 56%

**Q.** And the AUC [2]?
**A.** 56100 ng·h/mL

**Q.** And the Cmax [3]?
**A.** 7950 ng/mL

**Q.** And the Vd [4]?
**A.** 0.3 L/kg

**Q.** And the clearance [5]?
**A.** 2 mL/min/kg

**Q.** And the “beta t1/2” value (Rattus norvegicus)?
**A.** 2.25 h

**Q.** What about the inhibition at 10 µM (CYP2C19) of the same compound?
**A.** < 12%

**Q.** What about the IC50 [6] of the same compound?
**A.** > 100000 nM

**Q.** And the fraction unbound [7]?
**A.** 0.213

**Q.** And the inhibition at 10 µM (CYP2C9)?
**A.** < 12%

**Q.** What about the inhibition at 10 µM (CYP2D6) of the same compound?
**A.** < 12%

**Q.** What about the inhibition at 10 µM (CYP3A4) of the same compound?
**A.** < 12%

**Q.** What about the inhibition at 10 µM (CYP1A2) of the same compound?
**A.** < 12%

**Q.** And the Activity (Salmonella typhimurium)?
**A.** Non-toxic

**Q.** And the half-life [8]?
**A.** 17.9 h

**Q.** And the EC50 [9]?
**A.** 5 nM

**Q.** What about the EC50 (MRC5) of the same compound?
**A.** 310 nM

**Q.** What about the AUC(0-t) [10] of the same compound?
**A.** 619 ng·h/mL

**Q.** And the AUC(0-inf) [11]?
**A.** 629 ng·h/mL

**Q.** What about the Cmax [12] of the same compound?
**A.** 72.2 ng/mL

**Q.** And the Tmax [13]?
**A.** 2 h

**Q.** What about the Clast (Canis familiaris) of the same compound?
**A.** 0.365 ng/mL

**Q.** And the CL/F [14]?
**A.** 2.7 mL/min/kg

**Q.** And the bioavailability [15]?
**A.** 121%

**Q.** And the half-life [16]?
**A.** 40 h

**Q.** And the Activity (Mus musculus [17])?
**A.** Non-toxic

**Q.** What about the Activity (Mus musculus [18]) of the same compound?
**A.** Non-toxic

**Q.** And the GI50 (LoVo)?
**A.** 4 nM
